Test results reported in publication PMC13108699, “Mass balance and metabolite profiling of ^14C-Zalunfiban in humans following single-dose subcutaneous administration” (Xenobiotica; the fate of foreign compounds in biological …, 2025).
Values joined by “and” are separate entries in the source; they are usually repeats but may differ in a detail not shown here. Equal entries are not always repeated.

Legend:
[1] = Safety assessments (adverse events, laboratory, vital signs, ECG); format: in vivo, human; conditions: for Tolerability: single SC 9.5 mg, 8 healthy males
Description: The study was reviewed, approved, and monitored by both an independent Institutional Review Board and a Data Safety Monitoring Board, and the protocol was performed under an Investigational New Drug Application. The safety of single-dose SC zalunfiban was evaluated by monitoring adverse events, clinical laboratory data, vital signs, 12-lead electrocardiogram, and physical examination. Vital signs (blood pressure, heart rate, body temperature, respiratory rate) were measured at screening, admission, pre-dose, post-dose at 1, 4, 8, hours, and in the morning on study days 2–11. Safety laboratory tests included serum chemistry, haematology, coagulation, and urinalysis, and were performed at screening, admission, and on study days 1, 4, and 11. On day 1, additional platelet counts were performed post-dose at 2, 6, and 12 h. […] Participants were continuously monitored for adverse events (AEs) and new use of medication(s).
During the study, AEs were collected from the time of informed consent to the last time the participant was seen. Any AE that occurred after the start of study drug administration was considered a treatment-emergent AE (TEAE). The investigator or designee assessed the severity of all AEs using the toxicity grading scale in National Cancer Institute Common Terminology Criteria for Adverse Events v5.0. These scales assign a grade of 1 through 5 to indicate the severity of AEs.

[2] = Whole blood total radioactivity (AMS) PK after SC ^14C-zalunfiban; format: in vivo, human
Description: The planned participant enrolment size was 8, with 2 additional alternate participants available on the morning of dosing. Following a 28-day screening period, all eligible participants were admitted to the research unit the evening before dosing. After fasting overnight, participants completed a standard breakfast prior to dosing on study day 1. After dosing, subjects fasted for 4 h. Fluids were permitted ad libitum starting 1-hour after dosing. […] The clinical study was conducted at the Pharmaron Clinical Pharmacology Centre (Baltimore, MD) and the study protocol, consent forms and regulatory documents were reviewed and approved by the […] Institutional Review Board (Columbia, MD). All participants received the same fixed mass dose of SC 9.5 mg ^14C-zalunfiban (5 μCi), in 0.5 mL of formulation solution. This zalunfiban dose was chosen to both ensure participant safety and to make certain the study results were clinically relevant. For the latter, by strict inclusion of participants with a body weight within the range of 73-99 kg, the zalunfiban doses were no higher than the highest administered in the currently ongoing Phase 3 study, which includes three groups of 0.110 mg/kg zalunfiban, 0.130 mg/kg zalunfiban, and placebo ([NIH 2025]). The ^14C radiolabel dose of 5 μCi presented minimal radiation risk to healthy subjects while providing a high likelihood of meeting the study objectives. […] At the laboratory, extraction of ^14C-zalunfiban from whole blood was achieved by repeated microcentrifugation, vortex mixing, and harvesting to collect analytes (see Metabolite profiling and excretion for more details). […] Whole blood samples were analysed using accelerator mass spectrometry (AMS). Urine sample analysis was performed using liquid scintillation counting analysis. Each sample was counted for at least 10 min or until the 2%2σ terminator was reached. Homogenised faeces samples were combusted in a Perkin Elmer, Model 307 sample oxidiser (Perkin Elmer, Waltham MA). […] For urine and faeces samples, total radioactivity analysis was initially performed using two liquid scintillation counters (LSC), a TriCarb 3180 TR/SL and a TriCarb 5110 TR (Perkin Elmer, Waltham MA). When the measured total radioactivity concentration was above the LLOQ, LSC data were reported. For LSC, the LLOQ was defined as twice the background count rate. If the radioactivity concentration was below the limit of quantification (BLOQ), samples were analysed by Accelerator Mass Spectrometry (AMS). For AMS analysis, the LLOQ for total radioactivity depends on multiple factors, including the carbon content of the sample, and it is provided as the mean of all participant values. The mean (SD) total radioactivity LLOQ for zalunfiban in whole blood was 0.2421 (0.0571) ngEq/mL, for faeces 0.0663 (0.0135) ngEq/gm, and urine 0.0088 (0.0029) ngEq/g. Zalunfiban and whole blood radioactivity concentrations were used to calculate PK parameters using standard non-compartmental analysis (NCA) methods using Phoenix WinNonlin software (Phoenix, Princeton, NJ). All statistical programming and tables, figures and listings were carried out using SAS 9.4 (SAS Institute, Inc., Cary, NC).

platelet aggregation = assay: In vitro inhibition of ADP-induced platelet aggregation in platelet-rich plasma; format: cell-based, human; conditions: Homo sapiens, Platelet, 20 min; PRP, 20 min at 22°C, ADP-initiated aggregation
Description: Ten mL of whole blood was collected from healthy human donors via venipuncture and treated with an anticoagulant (D-phenylalanyl-prolyl-arginyl chloromethyl ketone). From this, platelet-rich plasma (PRP) was prepared by centrifuging whole blood at room temperature at 650 × g for 4 min. PRP was removed and standardised to a uniform platelet concentration of 3.0 × 10^5/μL, using platelet poor plasma as a diluent, where necessary. […] Platelet aggregation was measured using an aggregometer (PAP-8E C/N 106075; Bio/Data Corp, Horsham PA). For M1 a range of concentrations was tested to produce a single fitted curve, and the Levenberg-Marquardt approach was used to calculate IC50 values.

Question: With `NCC(=O)Nc1cncc(-c2nn3c(=O)cc(N4CCNCC4)nc3s2)c1` [Zalunfiban, 2-amino-N-{5-[5-oxo-7-(piperazin-1-yl)-5H-[1,3,4]thia-diazolo[3,2-a]pyrimidin-2-yl]pyridin-3-yl}acetamide] as the compound, how does the TEAE headache ([1]; 1 grade 1 and one grade 2, of 8 dosed) read?
Answer: The TEAE headache was 2 participants.

Question: And the “Changes in clinical laboratory tests, vital signs, or ECGs” value ([1]; 8 dosed)?
Answer: The value was “no observed clinically significant changes”.

Question: What about the “Serious TEAEs” value ([1]; 8 dosed) of the same compound?
Answer: Its value is “no serious TEAEs”.

Question: And the “TEAEs leading to study discontinuation” value ([1]; 8 dosed)?
Answer: Its value is “no TEAEs leading to study discontinuation”.

Question: What about the TEAE confusion ([1]; grade 1, of 8 dosed) of the same compound?
Answer: The TEAE confusion was 1 participant.

Question: What about the “TEAE injection site bruising” value ([1]; grade 1, of 8 dosed) of the same compound?
Answer: The value was 1 participant.

Question: And the “TEAE injection site pain” value ([1]; grade 1, of 8 dosed)?
Answer: The value was 1 participant.

Question: And the “Participants with Grade 1 AEs” value ([1]; of 8 dosed)?
Answer: Its value is 4 participants.

Question: And the “Participants with a Grade 2 AE” value ([1]; of 8 dosed)?
Answer: Its value is 1 participant.

Question: And the Tolerability [1]?
Answer: Its Tolerability is “well-tolerated”.

Question: What about the Tolerability ([1]; listed as 14C-zalunfiban) of the same compound?
Answer: Its Tolerability is “safe and well-tolerated”.

Question: What about the “Time of first detection of whole blood radioactivity” value ([2]; all participants) of the same compound?
Answer: Its value is 5 min.

Question: What about the “Time to which whole blood total radioactivity remained quantifiable” value ([2]; all subjects except one (216 h)) of the same compound?
Answer: Its value is “up to 240 h”.

Question: What about the “Mean whole blood zalunfiban/total radioactivity expressed as a percentage, AUC0–4” value ([2]; first 4 h after dose) of the same compound?
Answer: Its value is 35.6% and 35%.

Question: And the “t1/2, whole blood total radioactivity” value ([2]; mean, overall (0.5 h to 240 h), n=8)?
Answer: Its value is 98.3 h.

Question: And the “Mean whole blood zalunfiban/total radioactivity expressed as a percentage, AUC0-inf” value ([2]; to be interpreted with caution (different assay sensitivity))?
Answer: Its value is 15.1%.

Question: What about the IC50 (platelet aggregation) of the same compound?
Answer: The IC50 was 0.112 µM.
